{
  "source": "patent US7041307B2",
  "about": "“Biocide-polyester concentrates and biocidal compositions prepared therefrom” (Ciba Specialty Chemicals Corporation, priority 1999, dated 2006)",
  "experiment": "Yellowness index (ASTM D1925) of polypropylene plaques after multiple pass extrusion, biocide as neat powder or polyester concentrate (Example 2)",
  "type": "physicochemical",
  "settings": "polypropylene plaque",
  "description": "Polypropylene homopolymer (PRO-FAX® 6501, Montell Polyolefins, 100 parts), stabilized with 0.05 parts of neopentanetetrayl tetrakis(3,5-di-tert-butyl-4-hydroxyhydrocinnamate), 0.10 parts of tris(2,4-di-tert-butylohenyl) phosphite and 0.05 parts of calcium stearate is dry blended without a biocide; or with 0.25 parts or with 0.50 parts of 2,4,4′-trichloro-2′-hydroxydiphenyl ether (IRGASAN® or IRGAGUARD®, Ciba Specialty Chemicals Corp.) either as a neat powder or as a concentrate as prepared in Example 1. The parts of components are by weight.\nThe extruded pellets are compression molded into 125 mil plaques (2″×2″, 5.08 cm×5.08 cm) at 450° F. (232° C.) for nine minutes (three minutes at low pressure; three minutes at high pressure; three minutes cooling). Yellowness index (YI) values are determined on the plaques according to ASTM D1925 on a DCI SF600 spectrophotometer. An increase in yellowness corresponds to a positive increase in the YI value.",
  "data": [
    {"smiles": "Oc1cc(Cl)ccc1Oc1ccc(Cl)cc1Cl", "note": "[Powder, 2,4,4′-trichloro-2′-hydroxydiphenyl ether]", "values": [
      {"measurement": "Yellowness Index (YI) after multiple pass extrusion at 500° F. (260° C.) First", "setting": "biocide 0.25% by wt", "value": 8.4},
      {"measurement": "Yellowness Index (YI) after multiple pass extrusion at 550° F. (288° C.) First", "setting": "biocide 0.25% by wt", "value": 6.4},
      {"measurement": "Yellowness Index (YI) after multiple pass extrusion at 500° F. (260° C.) Second", "setting": "biocide 0.25% by wt", "value": 8.8},
      {"measurement": "Yellowness Index (YI) after multiple pass extrusion at 550° F. (288° C.) Second", "setting": "biocide 0.25% by wt", "value": 6.3},
      {"measurement": "Yellowness Index (YI) after multiple pass extrusion at 500° F. (260° C.) Third", "setting": "biocide 0.25% by wt", "value": 9.7},
      {"measurement": "Yellowness Index (YI) after multiple pass extrusion at 550° F. (288° C.) Third", "setting": "biocide 0.25% by wt", "value": 6.6},
      {"measurement": "Yellowness Index (YI) after multiple pass extrusion at 500° F. (260° C.) First", "setting": "biocide 0.50% by wt", "value": 8.8},
      {"measurement": "Yellowness Index (YI) after multiple pass extrusion at 550° F. (288° C.) First", "setting": "biocide 0.50% by wt", "value": 7.1},
      {"measurement": "Yellowness Index (YI) after multiple pass extrusion at 500° F. (260° C.) Second", "setting": "biocide 0.50% by wt", "value": 9.7},
      {"measurement": "Yellowness Index (YI) after multiple pass extrusion at 550° F. (288° C.) Second", "setting": "biocide 0.50% by wt", "value": 7.2},
      {"measurement": "Yellowness Index (YI) after multiple pass extrusion at 500° F. (260° C.) Third", "setting": "biocide 0.50% by wt", "value": 9.2},
      {"measurement": "Yellowness Index (YI) after multiple pass extrusion at 550° F. (288° C.) Third", "setting": "biocide 0.50% by wt", "value": 7.4}
    ]}
  ]
}
